Read-outs that look alike come from different tables or passages of the source.
Key:
[1] = parameters: method as in PMID 34908893; details: rats; 90‐day; cited from earlier work
human OATP1B1 = biological target: T1, human OATP1B1 (Homo sapiens, UniProt Q9Y6L6); experiment: Inhibition of S‐3100‐CA uptake by OATP inhibitors, human OATP1B1; assay type: in vitro ADME; details: inhibitor at 100 μM
T1 construct: expressed in transfected cells; host or cells: 293FT cells
T1 sequence (Q9Y6L6 1-691): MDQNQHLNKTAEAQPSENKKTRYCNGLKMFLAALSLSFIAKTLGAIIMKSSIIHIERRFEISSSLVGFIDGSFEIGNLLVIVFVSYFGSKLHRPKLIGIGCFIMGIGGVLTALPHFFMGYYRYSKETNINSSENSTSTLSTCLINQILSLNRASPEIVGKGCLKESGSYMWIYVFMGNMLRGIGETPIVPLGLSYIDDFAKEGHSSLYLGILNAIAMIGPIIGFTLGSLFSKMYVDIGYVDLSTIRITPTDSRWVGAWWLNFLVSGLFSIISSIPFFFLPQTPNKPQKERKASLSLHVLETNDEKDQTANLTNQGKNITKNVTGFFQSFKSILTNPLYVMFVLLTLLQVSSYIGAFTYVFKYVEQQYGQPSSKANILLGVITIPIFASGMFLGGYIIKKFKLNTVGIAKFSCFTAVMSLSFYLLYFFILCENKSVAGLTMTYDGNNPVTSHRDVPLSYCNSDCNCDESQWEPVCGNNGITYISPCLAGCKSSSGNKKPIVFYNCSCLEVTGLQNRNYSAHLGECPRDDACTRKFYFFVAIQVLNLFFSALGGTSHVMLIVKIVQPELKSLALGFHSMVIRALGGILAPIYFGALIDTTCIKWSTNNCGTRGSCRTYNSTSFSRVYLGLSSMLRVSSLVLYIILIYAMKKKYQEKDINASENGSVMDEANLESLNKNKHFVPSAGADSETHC
Protocol: 293FT cells were purchased from Thermo Fisher Scientific, Inc.. The cells were grown in Dulbecco's modified Eagle medium (supplemented with 4.5 g/L glucose and 2 mM L‐glutamine) at 37°C, 5% CO2, and 95% humidity. The cells were passaged 3 times per week by harvesting cells using trypsin and plating at a density of 1.0 × 10^4 cells/cm^2 in a 10 cm cell culture plate for maintenance culture. The 293FT cells were detached using trypsin and re‐seeded at a density of 2.5 × 10^4 cells/cm^2 in BioCoat™ Collagen I 6‐well plates (Corning Inc.) for transfection and then treated with 1.2 μg of plasmid vector and 3.2 μl of Lipofectamine™ 2000 Transfection Reagent (Thermo Fisher Scientific, Inc.) according to the manufacturer's instructions. After a 3‐h treatment, the transfection medium was replaced with a fresh cell culture medium and incubated at 37°C with 95% humidity and 5% CO2 until ready for the assay.
Transport experiments were conducted approximately 24 h post‐transfection. […] From the lysate, 1.0 ml was transferred to a vial containing 10 ml of Emulsifier Scintillator Plus to measure the radioactivity in the LSC. The protein concentration of the cell lysate was also measured using a Pierce™ BCA Protein Assay Kit (Thermo Fisher Scientific, Inc.), which was used to normalize, according to the cell number, the radioactivity in the cell lysate extract. […]

[2] = Metabolite analysis in plasma, liver, and kidney (TLC); assay type: in vivo, Crl:CD1(ICR) mice; details: for concentration at 2 h / Kp at 2 h: Crl:CD1(ICR), mouse, oral; for Kp at 2 h: liver and plasma, read-out: Liver/plasma ratio of S‐3100‐CA; for Kp at 2 h / S‐3100‐CA concentration in liver: 2 h
Excerpt: Precoated silica gel 60 F254 chromatoplate (20 × 20 cm, 0.25‐ or 0.5‐mm layer thickness, Merck KGaA) was used for two‐dimensional thin layer chromatography (2D‐TLC) analysis. The solvent systems were ethyl formate/formic acid (95/5, v/v) for the first dimension, and ethyl acetate/acetic acid (95/5, v/v) for the second dimension. The radioactivity on the TLC plates was detected by autoradiography using an imaging plate processed with a fluoro‐image analyzer (FLA‐9500, GE Healthcare). The identity of the metabolites was confirmed by co‐chromatography in comparison with authentic metabolite standards.
Three mice per sex at 8 weeks old were given a single oral dose of [^14C]epyrifenacil at 1 mg/kg with or without co‐administration of OATP inhibitors. […] At 2 h after administration of [^14C]epyifenacil, the animals were euthanized by whole blood collection from the abdominal aorta under anesthesia with isoflurane. The sampling time point was selected as the time around T max based on the result of the blood ^14C‐concentration study. Then, the liver and kidney were dissected out, and the amount of ^14C was measured. Aliquots of heparinized blood samples were separated into blood cells and plasma by centrifugation at 2000g for 10 min at 4°C. The total weight of the liver and kidney was determined for each animal. Two aliquots of plasma and tissue samples (approximately 0.05–0.1 g) were weighed in a glass vial, and the radioactivity was measured.
Approximately 0.3 g of liver, kidney, and plasma samples were pooled, respectively, for each dose and gender to obtain samples for analysis. Pooled liver, kidney, and plasma (ca. 1 g each) samples were homogenized with an approximately 3‐fold volume (v/w) of methanol using the mixer mill MM400 (5 min, 25 cycles/second, Retsch GmbH) and centrifuged (10 000g, 5 min, 4°C) to separate the supernatants from the residues. The extraction was repeated one additional time. The supernatants obtained were pooled and labeled liver, kidney, and plasma extracts. These samples were concentrated and then subjected to TLC analysis. For calculation of extraction efficacy, the post‐extraction solids (PESs) from the tissues and plasma extracts were sampled in low potassium glass vials. PESs were solubilized with 3 M potassium hydroxide solution (approximately 1 ml), then bleached with 30% hydrogen peroxide solution, and finally mixed with 10 ml of Hionic‐Fluor to measure the radioactivity.

## CCOC(=O)COc1ncccc1Oc1cc(-n2c(=O)cc(C(F)(F)F)n(C)c2=O)c(F)cc1Cl [Epyrifenacil, ethyl[(3‐{2‐chloro‐4‐fluoro‐5‐[3‐methyl‐2,6‐dioxo‐4‐(trifluoromethyl)‐3,6‐dihydropyrimidin‐1(2H)‐yl]phenoxy}pyridin‐2‐yl)oxy]acetate]
[1]
  Hepatocyte injury: produced hepatocyte injury

## CO[C@H]1/C=C/O[C@@]2(C)Oc3c(C)c(O)c4c(O)c(c(/C=N/N5CCN(C)CC5)c(O)c4c3C2=O)NC(=O)/C(C)=C\C=C\[C@H](C)[C@H](O)[C@@H](C)[C@@H](O)[C@@H](C)[C@H](OC(C)=O)[C@@H]1C [RIF, Rifampicin]
Human OATP1B1
  Uptake of S‐3100‐CA, % of that by vehicle‐treated cells: less than 40%

## Cn1c(C(F)(F)F)cc(=O)n(-c2cc(Oc3cccnc3OCC(=O)O)c(Cl)cc2F)c1=O [S‐3100‐CA]
[2]; kidney, with rifampicin (OATP inhibitor) 200 mg/kg p.o., Female, 2 h after [^14C]Epyrifenacil 1 mg/kg p.o. + Rifampicin 200 mg/kg p.o., read-out: Metabolite concentration, Kidney
  concentration at 2 h: 50 ng/g
[2]; kidney, with rifampicin (OATP inhibitor) 200 mg/kg p.o., Male, 2 h after [^14C]Epyrifenacil 1 mg/kg p.o. + Rifampicin 200 mg/kg p.o., read-out: Metabolite concentration, Kidney
  concentration at 2 h: 73 ng/g
[2]; kidney, Female, 2 h after [^14C]Epyrifenacil 1 mg/kg p.o., read-out: Metabolite concentration, Kidney
  concentration at 2 h: 96 ng/g
[2]; kidney, Male, 2 h after [^14C]Epyrifenacil 1 mg/kg p.o., read-out: Metabolite concentration, Kidney
  concentration at 2 h: 55 ng/g
[2]; liver, with rifampicin (OATP inhibitor) 200 mg/kg p.o., Female, 2 h after [^14C]Epyrifenacil 1 mg/kg p.o. + Rifampicin 200 mg/kg p.o., read-out: Metabolite concentration, Liver
  concentration at 2 h: 660 ng/g
[2]; liver, with rifampicin (OATP inhibitor) 200 mg/kg p.o., Male, 2 h after [^14C]Epyrifenacil 1 mg/kg p.o. + Rifampicin 200 mg/kg p.o., read-out: Metabolite concentration, Liver
  concentration at 2 h: 1370 ng/g
[2]; liver, Female, 2 h after [^14C]Epyrifenacil 1 mg/kg p.o., read-out: Metabolite concentration, Liver
  concentration at 2 h: 3520 ng/g
[2]; liver, Male, 2 h after [^14C]Epyrifenacil 1 mg/kg p.o., read-out: Metabolite concentration, Liver
  concentration at 2 h: 4740 ng/g
[2]; plasma, with rifampicin (OATP inhibitor) 200 mg/kg p.o., Female, 2 h after [^14C]Epyrifenacil 1 mg/kg p.o. + Rifampicin 200 mg/kg p.o., read-out: Metabolite concentration, Plasma
  concentration at 2 h: 143 ng/g
[2]; plasma, with rifampicin (OATP inhibitor) 200 mg/kg p.o., Male, 2 h after [^14C]Epyrifenacil 1 mg/kg p.o. + Rifampicin 200 mg/kg p.o., read-out: Metabolite concentration, Plasma
  concentration at 2 h: 76 ng/g
[2]; plasma, Female, 2 h after [^14C]Epyrifenacil 1 mg/kg p.o., read-out: Metabolite concentration, Plasma
  concentration at 2 h: 68 ng/g
[2]; plasma, Male, 2 h after [^14C]Epyrifenacil 1 mg/kg p.o., pooled samples, read-out: Metabolite concentration, Plasma
  concentration at 2 h: 54 ng/g
[2]; all dose groups
  Share of ^14C in liver: over 70%
[2]; female, 1 mg/kg, females, epyrifenacil 1 mg/kg p.o. without inhibitors
  Kp at 2 h: 52
[2]; female, females, DGX co‐administrated (oral or intraperitoneal)
  Kp at 2 h: 50 to 56
[2]; female, females, RIF co‐administrated
  Kp at 2 h: 5
[2]; females, RIF co‐administrated
  S‐3100‐CA concentration in liver: 0.660 ppm
[2]; male, 1 mg/kg, males, epyrifenacil 1 mg/kg p.o. without inhibitors
  Kp at 2 h: 88
[2]; male, males, DGX co‐administrated (oral or intraperitoneal)
  Kp at 2 h: 89 to 139
[2]; male, males, RIF co‐administrated
  Kp at 2 h: 18
[2]; males, RIF co‐administrated
  S‐3100‐CA concentration in liver: 1.371 ppm

— PMC8496750, “Identification of the organic anion transporting polypeptides responsible for the hepatic uptake of the major metabolite of epyrifenacil, S‐3100‐CA, in mice” (Pharmacology Research & Perspectives, 2021)
